# Reference: US20110280807A1, “Methods and Models for Stress-Induced Analgesia” (UNIVERSITY OF GEORGIA RESEARCH FOUNDATION, INC., priority 2005, published 2011)
# “Also recorded” adds a separate entry of the source.
# Legend:
# [1] = tested on: rats subjected to brief, continuous footshock; experiment: Nonopioid stress-induced analgesia after brief continuous footshock, tail-flick test, systemic drug; assay type: in vivo, rat
# [2] = tested on: dorsolateral periaqueductal gray; experiment: PAG injection studies: microinjection into dorsolateral periaqueductal gray, stress analgesia; assay type: in vivo, rat; details: for basal nociceptive thresholds immediately prior to the stressor: after microinjection into dorsolateral periaqueductal gray
# [3] = tested on: rats; experiment: Tail-flick latencies in the absence of the stressor / basal nociceptive thresholds; assay type: in vivo, rat
# [4] = target: vanilloid VR1 receptors (Homo sapiens, UniProt Q8NER1); details: cited from earlier work
# Chain of vanilloid VR1 receptors (Q8NER1 whole entry): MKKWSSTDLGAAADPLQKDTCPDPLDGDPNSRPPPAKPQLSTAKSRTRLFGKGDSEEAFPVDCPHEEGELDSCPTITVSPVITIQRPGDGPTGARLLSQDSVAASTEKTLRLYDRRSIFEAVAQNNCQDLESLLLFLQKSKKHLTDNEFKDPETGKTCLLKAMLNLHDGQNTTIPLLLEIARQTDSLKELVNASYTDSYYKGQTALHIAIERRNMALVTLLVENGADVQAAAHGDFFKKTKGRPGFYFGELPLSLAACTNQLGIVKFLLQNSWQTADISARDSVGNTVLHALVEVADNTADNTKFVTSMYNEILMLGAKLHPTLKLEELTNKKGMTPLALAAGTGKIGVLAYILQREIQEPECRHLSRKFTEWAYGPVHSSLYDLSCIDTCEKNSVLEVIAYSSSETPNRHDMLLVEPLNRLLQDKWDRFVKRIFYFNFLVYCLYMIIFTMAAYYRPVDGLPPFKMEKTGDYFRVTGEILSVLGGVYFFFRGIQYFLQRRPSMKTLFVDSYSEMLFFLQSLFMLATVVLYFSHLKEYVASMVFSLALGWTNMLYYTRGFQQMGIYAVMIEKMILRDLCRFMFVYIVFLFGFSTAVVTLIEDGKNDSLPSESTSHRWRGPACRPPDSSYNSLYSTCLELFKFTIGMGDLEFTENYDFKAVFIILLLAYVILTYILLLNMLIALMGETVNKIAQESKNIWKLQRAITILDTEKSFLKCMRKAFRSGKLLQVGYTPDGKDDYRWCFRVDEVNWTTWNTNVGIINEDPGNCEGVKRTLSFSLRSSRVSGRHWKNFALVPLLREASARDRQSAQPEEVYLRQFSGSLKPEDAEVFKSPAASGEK
# [5] = tested on: rats; experiment: Tolerance studies: repeated agonist injections, then footshock stress analgesia; assay type: in vivo, rat
# [6] = tested on: rats; experiment: Morphine antinociception in rats treated chronically with WIN55,212-2 or vehicle; assay type: in vivo, rat; details: morphine 2.5 mg/kg s.c. on day 15
# [7] = tested on: rats; experiment: Δ^9-THC sensitization study (antinociception after stress or no stress); assay type: in vivo, rat; details: 10 mg/kg i.p. 24 h following stress or no stress; tail-flick 28-32 min after drug
# [8] = 5 mg/kg i.p. 20 min prior to footshock
molecule,measurement,setting,value
"CCCCC/C=C\C/C=C\C/C=C\C/C=C\CCCC(=O)NCCc1c[nH]c2ccc(O)cc12 [AA-5-HT, arachidonoylserotonin]",effect on stress analgesia (tail-flick latencies after footshock),"[1]; 10 mg/kg i.p., footshock 65 min following administration (FAAH inhibition study)",Potentiation of SIA; also recorded: increased the magnitude and duration of cannabinoid stress analgesia
same,effect on stress analgesia after site-specific administration,"[2]; 10 μg into dorsolateral periaqueductal gray, 35 min before footshock",enhanced SIA; also recorded: enhanced nonopioid stress analgesia
same,basal nociceptive thresholds immediately prior to the stressor,[2],absence of changes in basal nociceptive thresholds
Cc1c(C(=O)NN2CCCCC2)nn(-c2ccc(Cl)cc2Cl)c1-c1ccc(I)cc1 [AM251],effect on stress analgesia (tail-flick latencies after footshock),[1]; [8],suppressed SIA; also recorded: blocked this stress analgesia
same,basal nociceptive thresholds,"[3]; 5 mg/kg i.p., before the stressor",absence of changes in basal nociceptive thresholds
Cc1c(C(=O)NN2CCCCC2)nn(-c2ccc(Cl)cc2Cl)c1-c1ccc(Cl)cc1 [SR141716A],effect on AA-5-HT potentiation of stress analgesia,[1]; 1 mg/kg i.p. ten min prior to AA-5-HT 10 mg/kg i.p.,blocked
same,effect on stress analgesia (tail-flick latencies after footshock),[1]; [8],blocks SIA; also recorded: markedly attenuated
same,tail-flick latencies in the absence of the stressor,"[3]; no footshock, same times",failed to alter tail-flick latencies in the absence of footshock
same,effect on stress analgesia after site-specific administration,"[2]; 1 μg into dorsolateral periaqueductal gray, 5 min before footshock",suppressed; also recorded: blocked nonopioid stress analgesia
same,basal nociceptive thresholds immediately prior to the stressor,[2],absence of changes in basal nociceptive thresholds
same,inhibition of vanilloid VR1 receptors,[4],inhibits vanilloid VR1 receptors at high concentrations
"Cc1c(C(=O)c2cccc3ccccc23)c2cccc3c2n1[C@H](CN1CCOCC1)CO3 [WIN55,212-2]",stress analgesia after acute cannabinoid,"[5]; 10 mg/kg i.p. on day 14, 24 h prior to footshock, vs vehicle",stress analgesia was increased
same,post-injection tail-flick latencies (tolerance to cannabinoid antinociception),"[5]; 10 mg/kg i.p. x 14 days, days 2, 7 and 14",higher on day 2 compared to day 7 or 14; also recorded: induced tolerance to cannabinoid antinociception
same,stress analgesia in cannabinoid-tolerant rats,"[5]; chronic 10 mg/kg i.p. x 14 days, footshock 24 h after last injection, vs vehicle or acute group",SIA was attenuated; also recorded: Stress analgesia was attenuated
"CCCCC/C=C\C/C=C\C/C=C\C/C=C\CCCC(=O)NCCO [anandamide, arachidonylethanolamide]",binding to VR1,[4],binds to VR1 with low affinity
Oc1cc2c(cc1O)CN(C(=S)NCCc1ccc(Cl)cc1)CCC2 [capsazepine],effect on stress analgesia (tail-flick latencies after footshock),[1]; 10 mg/kg i.p. 20 min prior to footshock (capsazepine),failed to alter SIA; also recorded: did not alter stress analgesia
CN1CC[C@]23c4c5ccc(O)c4O[C@H]2[C@@H](O)C=C[C@H]3[C@H]1C5 [morphine],post-morphine tail-flick latencies (tolerance to morphine antinociception),"[5]; 10 mg/kg s.c. x 7 days, days 1 and 7",higher on day 1 compared to day 7
same,stress analgesia in morphine-tolerant rats,"[5]; chronic morphine 10 mg/kg s.c. x 7 days vs vehicle, footshock 24 h after last injection",SIA did not differ; also recorded: No differences in stress analgesia
same,morphine analgesia in cannabinoid-tolerant group relative to controls,[6],modest enhancement in morphine analgesia
same,post-morphine tail-flick latencies Mean±SEM,"[6]; rats treated chronically with WIN55,212-2",6.2 ± 0.25 s
same,post-morphine tail-flick latencies Mean±SEM,[6]; rats treated chronically with vehicle,5.3 ± 0.21 s
O=C1CC[C@@]2(O)[C@H]3Cc4ccc(O)c5c4[C@@]2(CCN3CC2CC2)[C@H]1O5 [naltrexone],effect on stress analgesia (tail-flick latencies after footshock),[1]; 14 mg/kg i.p. 20 min prior to footshock,not naltrexone or SR144528 blocks SIA; also recorded: neither the opioid antagonist naltrexone (14 mg/kg i.p.) nor the CB2 antagonist SR144528 altered stress analgesia
"CCCCCc1cc(O)c2c(c1)OC(C)(C)[C@@H]1CCC(C)=C[C@@H]21 [Δ^9-THC, Δ^9-tetrahydrocannabinol]",effect on stress analgesia (tail-flick latencies after footshock),"[1]; 10 mg/kg i.p. 20 min prior to footshock (Δ^9-THC), vs vehicle",potentiated SIA relative to vehicle; also recorded: enhanced the magnitude and the duration of nonopioid stress analgesia
same,Δ^9-THC-induced antinociception in shocked vs non-shocked rats,[7],greater in rats subjected to footshock; also recorded: greater in rats subjected previously to the stressor
SR144528,effect on stress analgesia (tail-flick latencies after footshock),[1]; [8],not naltrexone or SR144528 blocks SIA; also recorded: neither the opioid antagonist naltrexone (14 mg/kg i.p.) nor the CB2 antagonist SR144528 altered stress analgesia
